In patent publication US20200405809A1, “COMBINATION OF A CYCLIN DEPENDENT KINASE INHIBITOR AND A BET- BROMODOMAIN INHIBITOR” (Pfizer Inc., priority 2018, published 2020):

Tests used:
[1] = system: T47D breast cancer multicellular tumor spheroids; assay: In vitro screen in T47D breast cancer multicellular tumor spheroids, BET inhibitor plus palbociclib; format: cell-based; details: for Synergy score: BET inhibitor (30, 300, 3000 nM) in combination with 25 nM palbociclib, from AUC of spheroid growth curves (Chalice Analyzer); for Growth inhibition of T47D spheroids, as average diameter (mm): combination with palbociclib (25 nM) versus single agents
Experimental: T47D multicellular tumor spheroids were grown in a low-adhesion 96-well plate for use in screening. […] Two hundred T47D cells were seeded per well of 96-well ultralow attachment plates (ULA-96U, Thermo Fisher). Cells were grown for 4 days to allow spheroid formation, followed by initiation of compound treatment as indicated (day 0). […] The medium was replaced every 3 days. Spheroid average diameter was quantified every 3 days (Celigo 200-BFFL-S, Nexcelcom) and spheroid growth curves were obtained. The area-under-curve (AUC) was quantified and used to calculate synergy scores for BET inhibitors in combination with palbociclib (Chalice Analyzer, Horizon Discovery).

[2] = molecular target: BRD4 (Homo sapiens, UniProt O60885); details: method not given; listed beside Literature Ref.; cited from earlier work
[3] = system: Hs766T pancreatic cancer spheroids; assay: In vitro screen in Hs766T PDAC multicellular tumor spheroids, BET inhibitor plus palbociclib; format: cell-based; details: combination with palbociclib (50 nM) versus single agents
Experimental: Hs766T multicellular tumor spheroids were grown in a low-adhesion 96-well plate for use in screening. Hs766T cells were cultured in DMEM medium supplemented with 10% fetal bovine serum (GIBCO™). 2% Matrigel (Cultrex, cat#3432-005-1) was added to the medium, and 400 cells/well were subsequently seeded per well of 96-well ultralow attachment plates (ULA-96U, Thermo Fisher). Cells were grown for 4 days to allow spheroid formation, followed by initiation of compound treatment as indicated (day 0). Cells were treated either with vehicle (DMSO), or with 3 nM, 10 nM or 30 nM of test compound B7, or 30 nM, 300 nM or 3000 nM of test compound B8. […] The medium was replaced every 3 days. Spheroid average diameter was quantified every 3 days (Celigo 200-BFFL-S, Nexcelcom). Spheroid growth curves, generated as described in Example 2, are shown in FIGS. 12A-12C (B7); and FIGS. 13A-13C (B8).

[4] = system: MCF-7 breast cancer xenograft; assay: In vivo study in MCF-7 breast cancer xenograft; design: species or system NOD scid gamma (NSG) mice; details: palbociclib 50 mpk plus ABBV-075 2 mpk once daily days 0-20, recovery until day 47
Experimental: NOD scid gamma (NSG) mice (6-7 weeks old, Jax laboratory, Sacramento CA) were subcutaneously injected with 5×10^6 MCF-7 cells (ATCC) with 50% matrigel. When MCF-7 xenografts reached a volume of -150 mm^3, the tumor bearing mice were randomly assigned to four treatment groups, with each n=10 (vehicle, palbociclib (50 mpk), mivebresib (2 mpk), combination treatment with palbociclib (50 mpk) plus mivebresib (2 mpk)). Treatment was initiated after the randomization as indicated. Mice were treated once daily from days 0-20 and then tumors were allowed to recover until day 47. Mean tumor volumes (mm^3) are averages of MCF-7 xenografts (n=10).

COc1cc2c(cc1-c1c(C)noc1C)ncc1[nH]c(=O)n([C@H](C)c3ccccn3)c12 [B1, IBET-151 (GSK1210151)]
Synergy score [1]: 1.09 | Growth inhibition of T47D spheroids, as average diameter (mm) [1]: enhanced growth inhibition

Cc1sc2c(c1C)C(c1ccc(Cl)cc1)=N[C@@H](CC(=O)OC(C)(C)C)c1nnc(C)n1-2 [B2, JQ1]
Synergy score [1]: 1.08 | Growth inhibition of T47D spheroids, as average diameter (mm) [1]: enhanced growth inhibition

CCNC(=O)C[C@@H]1N=C(c2ccc(Cl)cc2)c2cc(OC)ccc2-n2c(C)nnc21 [B3, IBET-762 (GSK525762)]
Growth inhibition of T47D spheroids, as average diameter (mm) [1]: enhanced growth inhibition

Cc1cc2cc(NS(=O)(=O)c3ccccc3F)ccc2[nH]c1=O [B4, PFI-2]
Synergy score [1]: 0.79 | Growth inhibition of T47D spheroids, as average diameter (mm) [1]: enhanced growth inhibition | IC50 [2]: 96 nM

COc1cc(OC)c2c(=O)[nH]c(-c3cc(C)c(OCCO)c(C)c3)nc2c1 [B6, RVX-208 (RVX000222 or apabetalone)]
Synergy score [1]: 0.33 | Growth inhibition of T47D spheroids, as average diameter (mm) [1]: enhanced growth inhibition

CCS(=O)(=O)Nc1ccc(Oc2ccc(F)cc2F)c(-c2cn(C)c(=O)c3[nH]ccc23)c1 [B7, ABBV-075 (mivebresib)]
Growth inhibition of Hs766T spheroids, as average diameter (mm) [3]: enhanced growth inhibition | Growth inhibition of T47D spheroids, as average diameter (mm) [1]: enhanced growth inhibition | IC50 [2]: 1.5 nM | Tumor growth delay and tumor growth inhibition (mean tumor volume) [4]: enhanced tumor growth delay and tumor growth inhibition

COc1nnc2ccc(N3CCC(c4ccc(OCCN5CCN(C)C(=O)[C@H]5C)cc4)CC3)nn12 [B8, AZD5153]
Growth inhibition of Hs766T spheroids, as average diameter (mm) [3]: enhanced growth inhibition | Growth inhibition of T47D spheroids, as average diameter (mm) [1]: enhanced growth inhibition

Cc1noc2c1-c1ccccc1C(c1ccc(Cl)cc1)=N[C@H]2CC(N)=O [B9, CPI-0610]
Growth inhibition of T47D spheroids, as average diameter (mm) [1]: enhanced growth inhibition

Cc1sc2c(c1C)C(c1ccc(Cl)cc1)=N[C@@H](CC(=O)Nc1ccc(O)cc1)c1nnc(C)n1-2 [B10, MK-8628 (OTX015)]
Growth inhibition of T47D spheroids, as average diameter (mm) [1]: enhanced growth inhibition

PFI-1 [B5]
Synergy score [1]: 0.76 | Growth inhibition of T47D spheroids, as average diameter (mm) [1]: enhanced growth inhibition | IC50 [2]: 136 nM
